For 39 compounds, Dmax, remaining activity and DC50 results are on record in patent publication US11566022B2, “3-(5-methoxy-1-oxoisoindolin-2-yl)piperidine-2,6-dione derivatives and uses thereof” (NOVARTIS AG, priority 2019, dated 2023).

The target of the assay is HiBit-WIZ fusion protein (Homo sapiens, UniProt O95785+Q96SW2). In words: Quantification of WIZ protein levels in HiBit tag fusion protein assay (WIZ HiBit assay in 293T cells). The class given is cell-based. More on the design: Dmax: dose or concentration left out as unconfirmed. The settings on record: for Dmax / remaining activity at up to 25 µM: HEK-293T, 293T cells; for Dmax: 100 minus Amax, read-out: % degradation of WIZ (100-Amax); for remaining activity at up to 25 µM: DMSO-normalized, curve-fitted percentage of WIZ-HiBit remaining at 25 uM, read-out: WIZ Amax; for DC50: WIZ HiBit assay in 293T cells, 10-point, 5-fold dose response, highest concentration 25 μM, about 18 hours, read-out: WIZ AC50.
Sequence of HiBit-WIZ fusion protein (O95785 whole entry, the tested form may be a part): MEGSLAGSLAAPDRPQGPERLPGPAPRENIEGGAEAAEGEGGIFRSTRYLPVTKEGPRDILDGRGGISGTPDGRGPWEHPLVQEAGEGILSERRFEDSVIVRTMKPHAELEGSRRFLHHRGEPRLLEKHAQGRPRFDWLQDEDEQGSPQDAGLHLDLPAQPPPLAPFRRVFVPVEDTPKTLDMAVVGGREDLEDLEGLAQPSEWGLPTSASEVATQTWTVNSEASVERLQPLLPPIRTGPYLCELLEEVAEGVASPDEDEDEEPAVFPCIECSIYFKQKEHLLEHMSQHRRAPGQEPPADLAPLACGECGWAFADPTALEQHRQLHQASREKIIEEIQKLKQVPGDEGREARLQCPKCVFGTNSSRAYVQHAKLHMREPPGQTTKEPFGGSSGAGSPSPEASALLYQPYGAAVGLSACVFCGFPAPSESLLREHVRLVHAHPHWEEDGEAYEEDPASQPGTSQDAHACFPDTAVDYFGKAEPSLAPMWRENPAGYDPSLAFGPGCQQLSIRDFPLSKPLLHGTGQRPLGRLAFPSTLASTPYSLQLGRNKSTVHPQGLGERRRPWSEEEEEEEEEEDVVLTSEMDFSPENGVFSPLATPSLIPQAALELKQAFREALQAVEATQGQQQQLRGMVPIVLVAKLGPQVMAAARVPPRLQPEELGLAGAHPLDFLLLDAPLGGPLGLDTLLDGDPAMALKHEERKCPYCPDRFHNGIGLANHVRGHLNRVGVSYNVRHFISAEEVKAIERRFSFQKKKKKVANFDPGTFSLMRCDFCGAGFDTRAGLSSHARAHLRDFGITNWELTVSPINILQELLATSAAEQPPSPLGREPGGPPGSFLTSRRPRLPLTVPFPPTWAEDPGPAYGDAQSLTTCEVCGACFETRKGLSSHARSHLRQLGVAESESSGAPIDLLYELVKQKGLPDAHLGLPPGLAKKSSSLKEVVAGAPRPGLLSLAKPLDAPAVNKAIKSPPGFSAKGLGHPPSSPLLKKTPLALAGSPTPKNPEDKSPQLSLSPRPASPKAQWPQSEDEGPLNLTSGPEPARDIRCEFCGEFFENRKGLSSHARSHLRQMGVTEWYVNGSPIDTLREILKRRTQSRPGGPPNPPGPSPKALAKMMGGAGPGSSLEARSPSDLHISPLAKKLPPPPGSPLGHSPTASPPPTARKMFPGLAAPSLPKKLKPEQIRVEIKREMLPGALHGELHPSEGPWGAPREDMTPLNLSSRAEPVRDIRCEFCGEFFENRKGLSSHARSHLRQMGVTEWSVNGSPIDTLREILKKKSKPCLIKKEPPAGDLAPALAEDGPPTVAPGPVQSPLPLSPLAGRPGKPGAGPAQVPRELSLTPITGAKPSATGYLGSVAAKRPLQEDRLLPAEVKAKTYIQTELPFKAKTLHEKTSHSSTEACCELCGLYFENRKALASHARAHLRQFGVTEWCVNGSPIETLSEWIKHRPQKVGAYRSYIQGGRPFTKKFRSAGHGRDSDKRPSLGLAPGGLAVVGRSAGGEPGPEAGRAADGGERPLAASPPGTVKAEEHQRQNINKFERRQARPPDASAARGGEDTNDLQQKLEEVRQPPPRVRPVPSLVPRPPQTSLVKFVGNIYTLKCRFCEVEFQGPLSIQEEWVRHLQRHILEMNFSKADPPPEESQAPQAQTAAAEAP
Sequence of HiBit-WIZ fusion protein (Q96SW2 whole entry, the tested form may be a part): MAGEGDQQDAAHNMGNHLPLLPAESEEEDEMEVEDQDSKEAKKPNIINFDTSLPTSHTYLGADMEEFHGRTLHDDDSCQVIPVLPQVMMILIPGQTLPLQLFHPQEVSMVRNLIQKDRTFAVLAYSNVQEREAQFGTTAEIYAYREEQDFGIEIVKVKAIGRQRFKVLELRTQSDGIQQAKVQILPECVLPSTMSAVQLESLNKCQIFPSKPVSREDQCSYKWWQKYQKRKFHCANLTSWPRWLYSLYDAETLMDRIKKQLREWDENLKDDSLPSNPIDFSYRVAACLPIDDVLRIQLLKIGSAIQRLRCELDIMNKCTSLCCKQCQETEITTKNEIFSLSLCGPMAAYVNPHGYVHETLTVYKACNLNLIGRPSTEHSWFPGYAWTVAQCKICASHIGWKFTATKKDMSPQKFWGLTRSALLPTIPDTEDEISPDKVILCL
Sequence of HiBit-WIZ fusion protein (Q16531 whole entry partner, the tested form may be a part): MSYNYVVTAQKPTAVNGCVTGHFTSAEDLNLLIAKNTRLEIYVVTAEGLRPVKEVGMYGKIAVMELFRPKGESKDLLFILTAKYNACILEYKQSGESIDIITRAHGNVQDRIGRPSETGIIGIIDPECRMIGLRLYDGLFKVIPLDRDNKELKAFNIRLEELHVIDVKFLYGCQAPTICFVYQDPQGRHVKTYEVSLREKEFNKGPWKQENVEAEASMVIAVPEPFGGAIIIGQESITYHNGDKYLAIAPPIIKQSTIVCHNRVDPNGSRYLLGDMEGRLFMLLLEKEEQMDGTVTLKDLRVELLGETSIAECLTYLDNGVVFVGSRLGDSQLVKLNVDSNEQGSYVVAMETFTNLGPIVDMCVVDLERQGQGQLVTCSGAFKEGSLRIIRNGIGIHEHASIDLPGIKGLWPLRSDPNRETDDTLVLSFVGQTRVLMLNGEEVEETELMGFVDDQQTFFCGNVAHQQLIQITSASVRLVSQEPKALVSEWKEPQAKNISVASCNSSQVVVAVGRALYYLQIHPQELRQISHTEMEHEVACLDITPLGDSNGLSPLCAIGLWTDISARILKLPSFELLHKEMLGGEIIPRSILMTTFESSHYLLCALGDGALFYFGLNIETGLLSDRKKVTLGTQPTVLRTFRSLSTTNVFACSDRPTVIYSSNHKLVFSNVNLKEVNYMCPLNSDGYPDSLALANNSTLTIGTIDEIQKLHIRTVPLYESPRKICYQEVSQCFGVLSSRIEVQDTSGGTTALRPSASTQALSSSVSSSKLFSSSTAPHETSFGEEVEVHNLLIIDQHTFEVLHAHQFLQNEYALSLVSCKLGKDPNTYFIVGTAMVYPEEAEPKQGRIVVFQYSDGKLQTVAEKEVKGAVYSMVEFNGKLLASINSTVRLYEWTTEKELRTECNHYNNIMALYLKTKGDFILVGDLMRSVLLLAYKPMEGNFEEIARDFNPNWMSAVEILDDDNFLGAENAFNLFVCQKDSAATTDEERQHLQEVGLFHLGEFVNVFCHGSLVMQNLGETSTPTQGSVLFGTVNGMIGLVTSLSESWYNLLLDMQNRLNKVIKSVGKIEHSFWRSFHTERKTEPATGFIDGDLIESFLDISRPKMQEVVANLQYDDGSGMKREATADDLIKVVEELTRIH

With `CCN(CC)CC(=O)N1CCCC[C@H]1COc1ccc2c(c1)CN(C1CCC(=O)NC1=O)C2=O` (stereo partly drawn) [Compound I-72cp], the Dmax was 12.1%, the remaining activity at up to 25 µM worked out at 87.9% and the DC50 was above 25 µM.
In the same order, the values of `COc1cccc2c(C(=O)N3CCCC[C@H]3COc3ccc4c(c3)CN(C3CCC(=O)NC3=O)C4=O)c[nH]c12` (stereo partly drawn) [Compound I-72cq] are 31.1%, 68.9% and above 25 µM.
In the same order, the values of `O=C1CCC(N2Cc3cc(OC[C@@H]4CCCCN4C(=O)[C@H]4CCN(Cc5ccccc5)C4)ccc3C2=O)C(=O)N1` (stereo partly drawn) [Compound I-72cy] are 15.2%, 84.8% and above 25 µM.
In the same order, the values of `COc1ccc(C(=O)N2CCCC[C@H]2COc2ccc3c(c2)CN(C2CCC(=O)NC2=O)C3=O)cc1OCc1ccccc1` (stereo partly drawn) [Compound I-72d] are 71.6%, 28.4% and 1.9 µM.
`CN1CCCC1C(=O)N1CCCC[C@@H]1COc1ccc2c(c1)CN(C1CCC(=O)NC1=O)C2=O` (stereo partly drawn) [Compound I-72dd]: the Dmax stood at 19.5%, the remaining activity at up to 25 µM came out at 80.5% and the DC50 is above 25 µM.
In the same order, the values of `CC(C)n1cc(C(=O)N2CCCC[C@H]2COc2ccc3c(c2)CN(C2CCC(=O)NC2=O)C3=O)cn1` (stereo partly drawn) [Compound I-72dg] are 21.1%, 78.9% and above 25 µM.
In the case of `O=C1CCC(N2Cc3cc(OC[C@@H]4CCCCN4C(=O)C=C4CCCCC4)ccc3C2=O)C(=O)N1` (stereo partly drawn) [Compound I-72dm], the Dmax was 11.5%, the remaining activity at up to 25 µM came to 88.5% and the DC50 was above 25 µM.
In the same order, the values of `C[C@H]1CC[C@H](CC(=O)N2CCCC[C@H]2COc2ccc3c(c2)CN(C2CCC(=O)NC2=O)C3=O)CC1` (stereo partly drawn) [Compound I-72do] are 23.3%, 76.7% and above 25 µM.
In the same order, the values of `CC(C)c1cc(C(=O)N2CCCC[C@H]2COc2ccc3c(c2)CN(C2CCC(=O)NC2=O)C3=O)on1` (stereo partly drawn) [Compound I-72dp] are 30.5%, 69.5% and above 25 µM.
For the compound `O=C1CCC(N2Cc3cc(OC[C@@H]4CCCCN4C(=O)c4ncn(-c5ccccc5)n4)ccc3C2=O)C(=O)N1` (stereo partly drawn) [Compound I-72dt], the Dmax is 47.2%, the remaining activity at up to 25 µM is 52.8% and the DC50 is above 25 µM.
In the same order, the values of `O=C1CCC(N2Cc3cc(OC[C@@H]4CCCCN4C(=O)c4csc(-c5ccccc5)n4)ccc3C2=O)C(=O)N1` (stereo partly drawn) [Compound I-72du] are 23.6%, 76.4% and above 25 µM.
In the same order, the values of `O=C1CCC(N2Cc3cc(OC[C@@H]4CCCCN4C(=O)c4ccccc4OC(F)(F)F)ccc3C2=O)C(=O)N1` (stereo partly drawn) [Compound I-72dv] are 13.3%, 86.7% and above 25 µM.
In the same order, the values of `O=C1CCC(N2Cc3cc(OC[C@@H]4CCCCN4C(=O)c4csc(N5CCOCC5)n4)ccc3C2=O)C(=O)N1` (stereo partly drawn) [Compound I-72e] are 17.1%, 82.9% and above 25 µM.
For the compound `O=C1CCC(N2Cc3cc(OC[C@@H]4CCCCN4C(=O)[C@@H]4CCC(=O)N4Cc4ccccc4)ccc3C2=O)C(=O)N1` (stereo partly drawn) [Compound I-72ed], the Dmax came to 4.6%, the remaining activity at up to 25 µM worked out at 95.4% and the DC50 was above 25 µM.
`COc1c(F)cc(C(=O)N2CCCC[C@H]2COc2ccc3c(c2)CN(C2CCC(=O)NC2=O)C3=O)cc1F` (stereo partly drawn) [Compound I-72eg]: the Dmax was 72.1%, the remaining activity at up to 25 µM worked out at 27.9% and the DC50 was 2.25 µM.
With `CCc1cc(C(=O)N2CCCC[C@H]2COc2ccc3c(c2)CN(C2CCC(=O)NC2=O)C3=O)on1` (stereo partly drawn) [Compound I-72ek], the Dmax is 21%, the remaining activity at up to 25 µM was determined as 79% and the DC50 was above 25 µM.
In the same order, the values of `O=C1CCC(N2Cc3cc(OC[C@@H]4CCCCN4C(=O)CCC(=O)N4CCOCC4)ccc3C2=O)C(=O)N1` (stereo partly drawn) [Compound I-72eo] are 4.8%, 95.2% and above 25 µM.
Consider `Cc1cc(-c2onc(C)c2C(=O)N2CCCC[C@H]2COc2ccc3c(c2)CN(C2CCC(=O)NC2=O)C3=O)no1` (stereo partly drawn) [Compound I-72ep], for which the Dmax was determined as 77.8%, the remaining activity at up to 25 µM is 22.2% and the DC50 was 1.35 µM.
In the same order, the values of `CC#CCCOc1ccc(C(=O)N2CCCC[C@H]2COc2ccc3c(c2)CN(C2CCC(=O)NC2=O)C3=O)cc1` (stereo partly drawn) [Compound I-72ew] are 54.9%, 45.1% and 14.6 µM.
In the same order, the values of `CC(C)n1nccc1C(=O)N1CCCC[C@H]1COc1ccc2c(c1)CN(C1CCC(=O)NC1=O)C2=O` (stereo partly drawn) [Compound I-72ez] are 0%, 100% and above 25 µM.
`O=C1CCC(N2Cc3cc(OC[C@@H]4CCCCN4C(=O)[C@@H]4CCCCN4C4CC4)ccc3C2=O)C(=O)N1` (stereo partly drawn) [Compound I-72f]: the Dmax came out at 0.9%, the remaining activity at up to 25 µM stood at 99.1% and the DC50 was above 25 µM.
Consider `Cc1ccnc(-c2cc(C(=O)N3CCCC[C@H]3COc3ccc4c(c3)CN(C3CCC(=O)NC3=O)C4=O)ccn2)c1` (stereo partly drawn) [Compound I-72fa], for which the Dmax came to 5.1%, the remaining activity at up to 25 µM came out at 94.9% and the DC50 was above 25 µM.
Regarding `CC(C)N1CCC(CC(=O)N2CCCC[C@H]2COc2ccc3c(c2)CN(C2CCC(=O)NC2=O)C3=O)CC1` (stereo partly drawn) [Compound I-72fe], the Dmax was determined as 18.5%, the remaining activity at up to 25 µM amounted to 81.5% and the DC50 is above 25 µM.
With `O=C1CCC(N2Cc3cc(OC[C@@H]4CCCCN4C(=O)c4cnc(N5CCCCC5)s4)ccc3C2=O)C(=O)N1` (stereo partly drawn) [Compound I-72fi], the Dmax turned out to be 70.2%, the remaining activity at up to 25 µM is 29.8% and the DC50 was found to be 2.05 µM.
Consider `O=C1CCC(N2Cc3cc(OC[C@@H]4CCCCN4C(=O)c4ccc(-c5ccc(F)cc5)cn4)ccc3C2=O)C(=O)N1` (stereo partly drawn) [Compound I-72fj], for which the Dmax came to 63.7%, the remaining activity at up to 25 µM stood at 36.3% and the DC50 worked out at 3.91 µM.
In the same order, the values of `O=C1CCC(N2Cc3cc(OC[C@@H]4CCCCN4C(=O)[C@H]4CCOC4)ccc3C2=O)C(=O)N1` (stereo partly drawn) [Compound I-72fn] are 2.6%, 97.4% and above 25 µM.
In the same order, the values of `Cc1nc(C(=O)N2CCCC[C@H]2COc2ccc3c(c2)CN(C2CCC(=O)NC2=O)C3=O)c(C)s1` (stereo partly drawn) [Compound I-72fp] are 9.5%, 90.5% and above 25 µM.
For `O=C1CCC(N2Cc3cc(OC[C@@H]4CCCCN4C(=O)c4snnc4-c4ccccc4)ccc3C2=O)C(=O)N1` (stereo partly drawn) [Compound I-72fq], the Dmax came out at 0.3%, the remaining activity at up to 25 µM came out at 99.7% and the DC50 was above 25 µM.
In the same order, the values of `O=C1CCC(N2Cc3cc(OC[C@@H]4CCCCN4C(=O)CCCn4cnnc4)ccc3C2=O)C(=O)N1` (stereo partly drawn) [Compound I-72fv] are 1.1%, 98.9% and above 25 µM.
On to `COc1ccc(C(C)(C)C(=O)N2CCCC[C@H]2COc2ccc3c(c2)CN(C2CCC(=O)NC2=O)C3=O)cc1` (stereo partly drawn) [Compound I-72fz], for which the Dmax came to 9.1%, the remaining activity at up to 25 µM is 90.9% and the DC50 was above 25 µM.
As to `O=C1CCC(N2Cc3cc(OC[C@@H]4CCCCN4C(=O)c4cccnc4N4CCCC4)ccc3C2=O)C(=O)N1` (stereo partly drawn) [Compound I-72gb], the Dmax worked out at 23.9%, the remaining activity at up to 25 µM was 76.1% and the DC50 was above 25 µM.
`CC1(c2ccc(C(=O)N3CCCC[C@H]3COc3ccc4c(c3)CN(C3CCC(=O)NC3=O)C4=O)cc2)COC1` (stereo partly drawn) [Compound I-72gc]: the Dmax was 58.3%, the remaining activity at up to 25 µM was determined as 41.7% and the DC50 was 10.1 µM.
For the compound `CC(C)c1cc(C(=O)N2CCCC[C@H]2COc2ccc3c(c2)CN(C2CCC(=O)NC2=O)C3=O)n(C)n1` (stereo partly drawn) [Compound I-72gd], the Dmax came to 80.1%, the remaining activity at up to 25 µM was determined as 19.9% and the DC50 was 0.919 µM.
In the same order, the values of `CN(C)c1cccc(C(=O)N2CCCC[C@H]2COc2ccc3c(c2)CN(C2CCC(=O)NC2=O)C3=O)c1` (stereo partly drawn) [Compound I-72gg] are 24%, 76% and above 25 µM.
Consider `N#Cc1ccc(CCC(=O)N2CCCC[C@H]2COc2ccc3c(c2)CN(C2CCC(=O)NC2=O)C3=O)cc1` (stereo partly drawn) [Compound I-72gh], for which the Dmax was 10.9%, the remaining activity at up to 25 µM came to 89.1% and the DC50 was above 25 µM.
In the case of `CC(C)c1ccccc1C(=O)N1CCCC[C@H]1COc1ccc2c(c1)CN(C1CCC(=O)NC1=O)C2=O` (stereo partly drawn) [Compound I-72gi], the Dmax was 14.9%, the remaining activity at up to 25 µM was determined as 85.1% and the DC50 is above 25 µM.
In the same order, the values of `O=C1CCC(N2Cc3cc(OC[C@@H]4CCCCN4C(=O)C4CCCOC4)ccc3C2=O)C(=O)N1` (stereo partly drawn) [Compound I-72gj] are 2.3%, 97.7% and above 25 µM.
On to `O=C1CCC(N2Cc3cc(OC[C@@H]4CCCCN4C(=O)CCc4c[nH]cn4)ccc3C2=O)C(=O)N1` (stereo partly drawn) [Compound I-72gk], for which the Dmax is 6.5%, the remaining activity at up to 25 µM came out at 93.5% and the DC50 is above 25 µM.
In the same order, the values of `COc1ccc(C(=O)N2CCCC[C@H]2COc2ccc3c(c2)CN(C2CCC(=O)NC2=O)C3=O)nn1` (stereo partly drawn) [Compound I-72gm] are 6.8%, 93.2% and above 25 µM.
